# In patent US8632452B2, “Peroxisome proliferator-activator receptor δ (PPARδ) and the development of preimplantation embryos” (Board of Regents of the University of Texas System, priority 2005, dated 2014):
# What was measured:
# [1] = system: preimplantation mouse embryos (wild type, PPARδ+/+); assay: Complete hatching of cultured wild type mouse embryos; format: cell-based; conditions: for rate of complete hatching versus control, ligand added at two-cell, eight-cell or morula stage: exposure 0-96, 24-96 and 48-96 hrs; for rate of complete hatching versus control, ligand added at two-cell, eight-cell or morula stage / rate of complete hatching versus control, ligand added at blastocyst stage: read at 96 hrs; for rate of complete hatching versus control, ligand added at blastocyst stage: exposure 72-96 hrs; for proportion of completely hatched embryos: 0.1 μM each ligand from two-cell stage, untreated 30%
# Source text: (§1) Harvest and culture of mouse embryos. Mice were obtained from the following sources: C3H, 129S1/SvImJ and C57BL6/J, the Jackson laboratory (Bar Harbor, Me., USA); ICR and C57BL6/Nhd, Harlan (Indianapolis, Ind., USA); PPARδ−/−, a gift from Dr. R. Evans (the Salk Institute, La Jolla, Calif.). The wild type (WT) counter parts of PPARδ−/− were bred by mating 129S1/SvImJ and the offspring of C57BL6/J×129S1/SvImJ. Mice were kept in temperature and humidity controlled environment (07:00 light on, 19:00 light off) with free access to food and water. The mouse embryos were harvested and cultured as described previously (Huang et al., 2003). Briefly, three-week old female mice were super-ovulated with intra-peritoneal injection of PMSG (5 IU) followed by hCG (5 IU) 42-46 hrs later. After hCG injection (at 15:00), each female mouse was caged with one male mouse with proven fertility. Unless specified otherwise, embryos (at two-cell stage) were harvested 44-48 hrs later and cultured (17-20 per group) at 37° C. under 5% CO2 in 4-well plates (Nalge Nunc International, Naperville, Ill., USA) containing 600 ul protein-free media. The HTF media (Sage Biopharma, Bedminster, N.J., USA) was used during the first 48 hrs; the αMEM (Irvine Scientific), with Earle's Salts and 2 mM glutamine, was used during the second 48 hrs. After 96 hrs of culture, each embryo was examined for the presence of zona pellucida. Those completely free of the zona pellucida were counted as having completely hatched. The rate of complete hatching was calculated by dividing the number of completely hatched embryos by the number of total embryos. Complete embryo hatching was used as an end point because it is a clear cut endpoint and correlates with the likelihood of implantation and viable pregnancy (Huang et al., 2003; Huang et al., 2004b). The concentration of the vehicle (DMSO) was less than 1:10,000; control embryos received the same concentration of DMSO. Prism® Version 3.0 (GraphPad Software Inc. San Diego, Calif.), with the Hill slope set at 1.0, was used to estimate the ED50 of L-165041. Chi-square and Student's t-tests were used where appropriate (InStat® Version 3.05, GraphPad Software Inc.). A p<0.05 was considered statistically significant.
# PPARδ−/− embryos = assay: Complete hatching of cultured PPARδ−/− mouse embryos; format: cell-based; conditions: 96 h; for effect on hatching of PPARδ−/− embryos: 0.1 μM from two-cell stage
# Source text: as §1, with “DMSO.” for “DMSO. Prism® Version 3.0 (GraphPad Software Inc. San Diego, Calif.), with the Hill slope set at 1.0, was used to estimate the ED50 of L-165041. Chi-square and Student's t-tests were used where appropriate (InStat® Version 3.05, GraphPad Software Inc.). A p<0.05 was considered statistically significant.”
# [2] = system: preimplantation mouse embryos (C3B6F1); assay: TUNEL assay, dead cell index in cultured embryos; format: cell-based; conditions: 0.1 μM, 72 hrs of culture
# Method: Terminal deoxynucleotidyl transferase mediated dUTP Nick End Labeling (TUNEL) and dead cell index. The embryonic cells that undergo programmed cell death were identified by TUNEL assay using a commercial kit (In Situ Cell Death Detection Kit, Roche Applied Science) with some modifications. At each time point indicated, embryos were collected after culture or harvested from mice and fixed in 4° C. PBS containing 4% buffered paraformaldehyde for 30 min. Prior to TUNEL, the embryos were incubated at 37° C. with 5% triton in PBS for 20 mins. The manufacturer's protocol was modified. Up to 20 blastocysts were incubated at 37° C. in 20 uL of TUNEL reaction solution (2 uL of TUNEL enzyme and 18 uL of 1:4 diluted labeling solution) in a humidified chamber for 60 mins. The embryos were then incubated in DAPI (30 ug/mL) for 5 mins at 37° C. before mounted in 16.6% Elvanol® 50-42 (Dupont, Wilmington, Del., USA) in 0.1 M Tris HCl pH 8.5. The apoptotic cells and the total cells were visualized using a fluorescence microscope (AxioPlan 2, Carl Zeiss, Germany) with FITC and UV filters, respectively. DNAse-treated embryos were used as positive controls. The dead cell index (percent of cells that were TUNEL positive) was determined by dividing the number of TUNEL-positive cells by the number of total cells then multiplies by 100%.
# [3] = system: preimplantation mouse embryos; assay: BrdU uptake, proliferation index and cell number in cultured embryos; format: cell-based
# Method: 5-Bromo-2′-deoxy-uridine (BrdU) uptake and the proliferation index. The proliferation of embryonic cells was determined based on their abilities to incorporate BrdU. The assay was performed using a commercial kit (BrdU Labeling and Detection Kit I, Roche Applied Science, Indianapolis, Ind.) according to manufacturer's protocols with some optimizations. One of the changes was the duration of incubation. […] For the comparison between control and L165,041 treated embryos, the optimal time was 6 minutes. The modified procedure is as follows. Immediately after harvest, the embryos were incubated in 100 μl pre-equilibrated HTF medium containing 10 μM BrdU for […] at 37° C. under 5% CO2. Following the incubation, the embryos were fixed in ice-cold glycine (50 mM) in 70% ethanol (pH2.0) at −20° C. for 30 mins. Following rehydration/blocking in phosphate buffered saline (PBS) containing 1% BSA, the embryos were incubated with diluted anti-BrdU mouse monoclonal antibody (1:2) in the incubation buffer containing 1% BSA and followed by another incubation with a diluted FITC-conjugated […] IgG antibody (1:4) in PBS containing 1% BSA. Both incubations were at 37° C. and lasted for 30 mins; the embryos were washed in 200 μl PBS containing 1% BSA after each incubation. After a final incubation in DAPI (5 μg /ml) for 90 mins at 25° C., the embryos were mounted in 0.1 M Tris HCl (pH 8.5) containing 16.6% Elvanol® 50-42 (DuPont Wilmington, Del., USA) and 2.5% 1,4-diazabicyclo-(2.2.2)-octane. Cells that were in S-phase and, therefore, incorporated BrdU were identified under a FITC filter. Total cell number was determined based on DAPI nuclear staining under a UV filter (AxioPlan 2, Carl Zeiss, Germany). The proliferation index (percent of cells in S-phase) was determined by dividing the number of BrdU-positive cells by the number of total cells then multiplies by 100%.
# The proliferation of embryonic cells was determined based on their abilities to incorporate BrdU. […] Total cell number was determined based on Hoechst 33258 nuclear staining under a UV filter.
# [4] = system: PPARδ+/+ embryos transferred to gestational carriers (ICR female mice); assay: Embryo transfer to gestational carriers and determination of implantation rate; format: in vivo, mouse; conditions: wild type two-cell embryos treated 48 h, gestation sacs counted 72 h after transfer; control 41%, p<0.05
# Method: Embryo transfer was performed as described previously (Huang et al., 2004b). Briefly, embryos were transferred to gestational carriers (ICR female mice) on day 2.5 of pseudopregnancy under a dissecting microscope (Olympus SZ-PT, Shinjuku-ku, Tokyo, Japan). After anesthesia, each uterine horn was accessed via a 1.5 cm flank incision. With the proximal oviduct held by a pair of forceps, an opening was created at the distal end of the uterine horn on the anti-mesenteric side with a 30 gauge needle. […] Up to seven embryos in 1.5 μl transfer medium (MEM with 25 mM HEPES and 1% BSA) were transferred to each horn. After each transfer, the contents of the pipette were examined under a stereomicroscope to identify retained embryos. To avoid the mixing of embryos as a result of embryo crossover (Dr. Andreas Zimmer, University of Bonn, Germany, MG118 List, the Jackson Laboratory), each gestational carrier received only one kind of embryo. […] Seventy-two h after embryo transfer, the rates of implantation were determined based on a previously-described method with modifications (Paria et al., 1993). […] After the carrier was sacrificed, the uterine horns were opened and the gestation sacs counted. The implantation rate was expressed as percentages of gestation sacs over total embryos transferred. […]
# PPARδ+/+ embryos = assay: Developmental stage (blastocyst formation) of cultured embryos at time of transfer; format: cell-based, mouse; conditions: wild type two-cell embryos treated 48 h
# Source text: Harvest and culture of mouse embryos. Mice were obtained from the following sources: C3H, 129S1/SvImJ and C57BL6/J, the Jackson laboratory (Bar Harbor, Me., USA); ICR and C57BL6/Nhd, Harlan (Indianapolis, Ind., USA); PPARδ−/−, a gift from Dr. R. Evans (the Salk Institute, La Jolla, Calif.). The wild type (WT) counter parts of PPARδ−/− were bred by mating 129S1/SvImJ and the offspring of C57BL6/J×129S1/SvImJ. Mice were kept in temperature and humidity controlled environment (07:00 light on, 19:00 light off) with free access to food and water. The mouse embryos were harvested and cultured as described previously (Huang et al., 2003). […] Those completely free of the zona pellucida were counted as having completely hatched. The rate of complete hatching was calculated by dividing the number of completely hatched embryos by the number of total embryos. […]
# Embryo transfer was performed as described previously (Huang et al., 2004b). […] Seventy-two h after embryo transfer, the rates of implantation were determined based on a previously-described method with modifications (Paria et al., 1993). […] After the carrier was sacrificed, the uterine horns were opened and the gestation sacs counted. The implantation rate was expressed as percentages of gestation sacs over total embryos transferred. […]
# [5] = system: mouse embryos transferred to gestational carriers; conditions: treated embryos transferred to gestational carriers; cited from earlier work
Compound,"complete embryo hatching versus control ([1]; 1 μM ligand, two-cell embryos (C3B6F1), 96 hrs)","relative risk of complete hatching versus control group ([1]; 1 μM, 96 hrs, 95% confidence interval 1.08-3.36)","rate of complete hatching versus control, ligand added at two-cell, eight-cell or morula stage ([1]; 1 μM)","rate of complete hatching versus control, ligand added at two-cell, eight-cell or morula stage ([1]; 1 μM, listed as L-165041)","rate of complete hatching versus control, ligand added at blastocyst stage ([1]; 1 μM)","rate of complete hatching versus control, ligand added at blastocyst stage ([1]; 1 μM, listed as L-165041)","EC50 ([1]; Mus musculus, two-cell embryos cultured 96 hrs in different concentrations, estimated, Hill slope 1.0, read-out: ED50 of enhancement of complete embryo hatching) [nM]","proportion of completely hatched embryos ([1]; wild type embryos, 96 h) [%]",effect on hatching of PPARδ−/− embryos (PPARδ−/− embryos),"dead (apoptotic, TUNEL positive) cells versus control [2]","cells in the S-phase (BrdU incorporation) versus control ([3]; 0.1 μM, 72 hrs of culture, BrdU 6 minutes)","average number of cells per embryo ([3]; 0.1 μM, 72 hrs of culture, same in control group)","percentages of BrdU-positive cells over the untreated control ([3]; 10 μM BrdU, wild type embryos)",implantation rate (gestation sacs over embryos transferred) [4] [%],blastocyst formation versus control (PPARδ+/+ embryos),"completely hatched embryos versus total embryos ([1]; wild type embryos, 0.1 μM, 96 h)","completely hatched embryos versus total embryos (PPARδ−/− embryos; PPARδ−/− embryos, 0.1 μM, untreated 4/144)",more live births over control embryos [5] [%]
"CCCc1c(OCCCOc2ccc(OCC(=O)O)cc2)ccc(C(C)=O)c1O [L165,041, 4-[3-(4-Acetyl-3-hydroxy-2-propylphenoxy)propoxy]phenoxy-acetic acid]",enhanced complete embryo hatching,1.9,significantly higher rates of complete hatching,effective in stimulating embryo hatching,the difference was not statistically significant,no longer effective in stimulating hatching,21,54,Neither iloprost nor L-165041 affected the hatching of PPARδ−/− embryos,less dead cells,more cells in the S-phase,63,increased the percentages of BrdU-positive cells,64,did not significantly enhance blastocyst formation,–,–,–
CC#CCC(C)[C@H](O)/C=C/[C@@H]1[C@H]2C/C(=C/CCCC(=O)O)C[C@H]2C[C@H]1O (some centres unmarked) [iloprost],–,–,–,–,–,–,–,50,had no effect,–,–,–,–,–,–,37/74,3/144,28
